The text below walks through data of US7790921B2 (Biolink Life Sciences, Inc., priority 2007, dated 2010).

For series [1] the following is noted: literature; cited from earlier work.
Series [2] can be described thus: Solubility in simulated gastric fluid USP. The format is physicochemical.
Series [3] in a line: Hygroscopicity and storage stability of the solid. Type of series: physicochemical.
Series [4] in a line: Solubility of lithium valproate in water / aqueous solutions.
Series [5] in a line: Solubility in simulated intestinal fluid USP. The format is physicochemical.
A further series in a line: Solubility in methanol. To be noted: product of Examples 2 and 3.
For a further series, the system named is HIV-infected individuals. To be noted: 250 mg twice daily, 10 weeks; cited from earlier work.
Series [6] concerns patients with major depressive illness, bipolar disorder, or schizoaffective disorder. The note with it: cited from earlier work.
Another series concerns deacetylase. To be noted: dose between 20 and 40 mg/kg, patients with cervical cancer; cited from earlier work.
Setting [7] is: mean duration of at least 1 year of administration.

Entries after “also recorded” stand apart in the source; their conditions may differ. Like-named read-outs stand apart in the source and are kept apart here.

In the case of `CCCC(CCC)C(=O)[O-].[Na+]` [Sodium valproate], the hygroscopicity result in [1] was “hygroscopic”.

Take `CCCC(CCC)C(=O)[O-].[Li+]` [lithium valproate]: the “solubility in simulated gastric fluid USP” value in series [2] is “soluble”. In addition, in series [3], the hygroscopicity entry is reported as “not hygroscopic or deliquescent; also recorded: non-hygroscopic” and the stability during storage result is “stable during storage”. For the same molecule, the “solubility of lithium valproate in water” value in series [4] (portions added to 1 mL water until undissolved) was “about 250 mg of lithium valproate per mL of water”. Also, in series [4] (product of Examples 2 and 3), the “solubility in water” value was “very soluble”. Besides, the “pH of aqueous solutions” value in [4] (water or aqueous solutions) is listed as “near neutral pH”. Besides, in series [5], the “solubility in simulated intestinal fluid USP” value is given as “soluble”. In addition, the “solubility in methanol” value in the series “Solubility in methanol” is reported as “very soluble”.

Turning to `CCCC(CCC)C(=O)O` [divalproex sodium], the hygroscopicity entry in series [1] is reported as “not hygroscopic”.

Regarding `CCCC(CCC)C(=O)O` [Valproic acid, 2-propylpentanoic acid], the safety and tolerability result in the series with HIV-infected individuals is “safe and well tolerated”. The “solubility in water” value in series [1] was “very slightly soluble”. Moreover, the “mean change in GAS ratings” value in series [6] (bipolar and schizoaffective patients, average of 11 to 14 months of treatment) is 35.0. Besides, in series [6] (setting [7]), the “patients with improved mean GAS scores, bipolar disorder” value is listed as 12 of 12; the “patients with improved mean GAS scores, depressed patients” value is on record as 7 of 9; the “patients with improved mean GAS scores, schizoaffective states” value is reported as 11 of 14.

In the case of “2-propylpentanoic acid magnesium salt [magnesium valproate]”, in the series with deacetylase, the “effect on deacetylase activity in tumor tissues” value was “inhibits deacetylase activity”.
